Consider one compound from patent US20010014682A1, “Fibrinogen receptor antagonists” (SmithKline Beecham Corporation, priority 1997, published 2001).

For this experiment, the target named is T1, fibrinogen receptor (GPIIb-IIIa) (Homo sapiens, UniProt P05106+P08514).
T1 construct: The lectin-retained GPIIb-IIIa was eluted with buffer A containing 10% dextrose; tissue Red Cross; host or cells: human platelets
Nature of the experiment: Competitive binding to GPIIb-IIIa using [3H]-SK&F-107260 as RGD-type ligand. The note with it: read-out: Ki for inhibition of [3H]-SK&F 107260 binding.

T1 sequence (P08514 32-887 limits assumed): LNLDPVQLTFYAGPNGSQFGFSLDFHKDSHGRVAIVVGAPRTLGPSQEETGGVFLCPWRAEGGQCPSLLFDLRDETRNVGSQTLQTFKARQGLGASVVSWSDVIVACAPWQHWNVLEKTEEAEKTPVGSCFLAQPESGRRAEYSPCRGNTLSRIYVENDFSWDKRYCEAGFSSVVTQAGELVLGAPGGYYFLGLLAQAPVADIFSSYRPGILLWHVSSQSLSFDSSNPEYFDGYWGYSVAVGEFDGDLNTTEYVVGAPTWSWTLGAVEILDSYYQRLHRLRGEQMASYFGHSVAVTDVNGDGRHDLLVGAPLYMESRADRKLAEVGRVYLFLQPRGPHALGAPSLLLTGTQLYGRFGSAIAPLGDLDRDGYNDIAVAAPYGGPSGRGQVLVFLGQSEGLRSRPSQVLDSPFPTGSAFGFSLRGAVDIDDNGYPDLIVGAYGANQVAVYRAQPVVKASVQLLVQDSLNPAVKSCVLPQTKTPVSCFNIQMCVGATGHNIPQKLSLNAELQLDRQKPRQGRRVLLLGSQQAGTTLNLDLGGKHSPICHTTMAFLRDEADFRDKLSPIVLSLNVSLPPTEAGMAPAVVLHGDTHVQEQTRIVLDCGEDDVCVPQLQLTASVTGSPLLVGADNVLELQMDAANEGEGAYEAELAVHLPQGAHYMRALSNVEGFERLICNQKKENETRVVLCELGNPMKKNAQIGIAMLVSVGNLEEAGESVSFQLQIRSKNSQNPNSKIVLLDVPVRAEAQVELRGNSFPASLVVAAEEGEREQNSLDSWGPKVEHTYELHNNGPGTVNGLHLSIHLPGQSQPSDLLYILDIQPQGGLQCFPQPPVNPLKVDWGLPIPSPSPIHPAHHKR
T1 sequence (P08514 891-1039 limits assumed): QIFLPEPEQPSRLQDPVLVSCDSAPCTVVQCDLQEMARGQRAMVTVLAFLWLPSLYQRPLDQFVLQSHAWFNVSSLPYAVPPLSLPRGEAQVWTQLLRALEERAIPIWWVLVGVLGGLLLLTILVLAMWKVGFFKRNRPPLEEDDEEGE
T1 sequence (P05106 27-788): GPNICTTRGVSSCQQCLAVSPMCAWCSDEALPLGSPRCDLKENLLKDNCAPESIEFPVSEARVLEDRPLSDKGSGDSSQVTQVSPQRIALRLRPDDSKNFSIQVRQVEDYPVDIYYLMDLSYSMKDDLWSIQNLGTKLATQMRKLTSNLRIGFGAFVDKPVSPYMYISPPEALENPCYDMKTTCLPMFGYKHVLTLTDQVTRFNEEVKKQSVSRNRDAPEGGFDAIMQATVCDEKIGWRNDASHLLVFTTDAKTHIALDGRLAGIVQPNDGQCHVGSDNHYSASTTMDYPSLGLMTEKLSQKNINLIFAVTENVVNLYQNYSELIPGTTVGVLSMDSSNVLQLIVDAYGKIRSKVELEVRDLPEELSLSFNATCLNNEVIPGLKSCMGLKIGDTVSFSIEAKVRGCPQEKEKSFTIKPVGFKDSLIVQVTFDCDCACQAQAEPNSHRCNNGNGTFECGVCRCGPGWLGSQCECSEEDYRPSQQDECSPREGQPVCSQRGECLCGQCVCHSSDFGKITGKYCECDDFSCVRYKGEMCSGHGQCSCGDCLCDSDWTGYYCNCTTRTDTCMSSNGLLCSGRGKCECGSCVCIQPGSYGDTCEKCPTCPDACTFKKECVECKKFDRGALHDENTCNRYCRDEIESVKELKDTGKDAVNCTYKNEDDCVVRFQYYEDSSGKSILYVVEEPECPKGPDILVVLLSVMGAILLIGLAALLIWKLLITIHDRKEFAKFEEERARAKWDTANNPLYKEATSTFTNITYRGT

Consider `O=C(Nc1ccc(N2CCNCC2)cc1)C1CCN(C(C(=O)O)c2ccccc2)CC1` (stereo not shown) [Example 1, 4-[(4-(1-piperizinyl)phenyl)aminocarbonyl]-1-piperidine-1-phenylacetic Acid], for which the Ki was about 3.5 nM.

For orientation: Ki means a measure of affinity in units of concentration, obtained from inhibition or displacement.
